Patent US11166893B2, “Topical hirsutism treatment” (BMG PHARMA SRL, priority 2015, dated 2021)

Tested on: growth of superfluous hair
Test: Inhibition of superfluous hair growth evaluated by the Trichoscan method
Assay type: in vivo
Conditions: 10% capryloyl glycine cream, topical, compared with eflornithine efficacy reported in Eur. J Dermatol 2008, 18 (1): 65-70
Description: The ability of capryloyl glycine to inhibit the growth of superfluous hair was evaluated by the Trichoscan® method (http://trichoscan.com/pages/english/professional-info/reference-values.php).

## CCCCCCCC(=O)NCC(=O)O [capryloyl glycine]
  ability to inhibit the growth of superfluous hair (efficacy): efficacy comparable to that of eflornithine
